Non-standard residues stand in square brackets, D forms with d. Residues, ends and D or L forms follow the SMILES beside them. No end group written: not given here. Aib = CC(C)(N)C(=O)O

From US7273848B2, “Apolipoprotein A-I agonists and their use to treat dyslipidemic disorders” (priority 1997, dated 2007) come the findings set out here.

The target in this experiment is T1, LCAT (purified from human plasma) (Homo sapiens, UniProt P04180).
T1 construct: from tissue; host or cells: human plasma
T1 sequence (P04180 25-440): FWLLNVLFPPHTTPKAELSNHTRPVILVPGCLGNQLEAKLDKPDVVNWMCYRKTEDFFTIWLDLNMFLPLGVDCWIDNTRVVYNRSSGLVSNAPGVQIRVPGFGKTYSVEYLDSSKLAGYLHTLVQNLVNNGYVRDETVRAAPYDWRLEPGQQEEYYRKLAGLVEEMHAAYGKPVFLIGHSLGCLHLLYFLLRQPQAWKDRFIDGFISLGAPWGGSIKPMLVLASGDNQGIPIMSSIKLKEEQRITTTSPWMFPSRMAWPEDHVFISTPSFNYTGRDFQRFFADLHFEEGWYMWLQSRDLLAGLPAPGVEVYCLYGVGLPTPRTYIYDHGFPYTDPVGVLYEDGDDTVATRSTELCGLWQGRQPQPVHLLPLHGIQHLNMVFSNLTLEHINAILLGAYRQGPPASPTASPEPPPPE
The experiment is described as follows: LCAT activation assay. The format is biochemical. The settings on record: LCAT activation as compared with native human ApoA-I (= 100%), equivalent masses. As for the experimental part: The peptides synthesized as described in Section 6, supra, were analyzed in vitro for their ability to activate LCAT. In the LCAT assay, substrate vesicles (small unilamellar vesicles or “SUVs”) composed of egg phophatidylcholine (EPC) or 1-Palmitoyl-2-oleyl-phosphatidyl-choline (POPC) and radiolabelled cholesterol are preincubated with equivalent masses either of peptide or ApoA-I (isolated from human plasma). The reaction is initiated by addition of LCAT (purified from human plasma). Native ApoA-I, which was used as positive control, represents 100% activation activity. “Specific activity” (i.e., units of activity (LCAT activation)/unit of mass) of the peptides can be calculated as the concentration of peptide that achieves maximum LCAT activation. For example, a series of concentrations of the peptide (e.g., a limiting dilution) can be assayed to determine the “specific activity” for the peptide—the concentration which achieves maximal LCAT activation (i.e., percentage conversion of cholesterol to cholesterol ester) at a specific timepoint in the assay (e.g., 1 hr.). When plotting percentage conversion of cholesterol at, e.g., 1 hr., against the concentration of peptide used, the “specific activity” can be identified as the concentration of peptide that achieves a plateau on the plotted curve.
The vesicles used in the LCAT assay are SUVs composed of egg phosphatidylcholine (EPC) or 1-palmitoyl-2-oleyl-phosphatidylcholine (POPC) and cholesterol with a molar ratio of 20:1. To prepare a vesicle stock solution sufficient for 40 assays, 7.7 mg EPC (or 7.6 mg POPC; 10 μmol), 78 μg (0.2 μmol) 4-^14C-cholesterol, 116 μg cholesterol (0.3 μmol) are dissolved in 5 ml xylene and lyophilized. Thereafter 4 ml of assay buffer is added to the dry powder and sonicated under nitrogen atmosphere at 4° C. Sonication conditions: Branson 250 sonicator, 10 mm tip, 6×5 minutes; Assay buffer: 10 mM Tris, 0.14 M NaCl, 1 mM EDTA, pH 7.4). The sonicated mixture is centrifuged 6 times for 5 minutes each time at 14,000 rpm (16,000×g) to remove titanium particles. The resulting clear solution is used for the enzyme assay.
For the LCAT purification, dextran sulfate/Mg^2+ treatment of human plasma is used to obtain lipoprotein deficient serum (LPDS), which is sequentially chromatographed on Phenylsepharose, Affigelblue, ConcanavalinA sepharose and anti-ApoA-I affinity chromatography, as summarized for a representative purification in TABLE IX, below: […]
Regarding “GIKKFLGSIWKFIKAFVG [peptide 242, reference compound]”, the “ACTIVITY (%) LCAT” value is 7%. Next, PLLELFKELLQELLEALKQKLK [peptide 23]: 54%; `CC(C)C[C@H](NC(=O)[C@H](C)NC(=O)[C@H](CCC(=O)O)NC(=O)[C@H](CC(C)C)NC(=O)C(C)(C)NC(=O)[C@H](CC(C)C)NC(=O)[C@H](CC(N)=O)NC(=O)[C@H](CC(C)C)NC(=O)[C@H](CC(C)C)NC(=O)[C@H](CCC(=O)O)NC(=O)[C@H](CCCNC(=N)N)NC(=O)[C@H](Cc1ccccc1)NC(=O)[C@H](CC(C)C)NC(=O)[C@H](CC(=O)O)NC(=O)[C@H](CC(C)C)NC(=O)[C@@H](NC(=O)[C@@H]1CCCN1)C(C)C)C(=O)N[C@@H](CCCCN)C(=O)N[C@@H](CCC(=O)O)C(=O)N[C@@H](CCCCN)C(=O)N[C@@H](CC(C)C)C(=O)N[C@@H](CCCCN)C(=O)O` [compound 102, PVLDLFRELLNLXLEALKEKLK] (H-PVLDLFRELLNL[Aib]LEALKEKLK-OH): 2%.

Turning to PVLDLFENLLERLLDALQKKLK [compound 159], the “ACTIVITY (%) LCAT” value worked out at 28%. On to “Ac-PVLDLFRELLEELKNKLK-NH2 [compound 196]”, for which the “ACTIVITY (%) LCAT” value came out at 81%. For the compound PVLELWENLLERLLDALQKKLK [compound 176], the “ACTIVITY (%) LCAT” value is 11%. To PVLDLFDNLLDRLLDLLNKKLK [compound 173] belongs 15%.

On to PVLELFENLLERWLDALQKKLK [compound 181], for which the “ACTIVITY (%) LCAT” value worked out at 8%. Turning to `CC(C)C[C@H](NC(=O)[C@H](C)NC(=O)[C@H](CCC(=O)O)NC(=O)C(C)(C)NC(=O)[C@H](CC(C)C)NC(=O)[C@H](CCC(=O)O)NC(=O)[C@H](CC(N)=O)NC(=O)[C@H](CC(C)C)NC(=O)[C@H](CCCCN)NC(=O)[C@H](CCC(=O)O)NC(=O)[C@H](CCCNC(=N)N)NC(=O)[C@H](Cc1ccccc1)NC(=O)[C@H](CCC(=O)O)NC(=O)[C@H](CC(=O)O)NC(=O)[C@H](CC(C)C)NC(=O)[C@@H](NC(=O)[C@@H]1CCCN1)C(C)C)C(=O)N[C@@H](CCCCN)C(=O)N[C@@H](CCC(N)=O)C(=O)N[C@@H](CCCCN)C(=O)N[C@@H](CC(C)C)C(=O)N[C@@H](CCCCN)C(=O)O` [compound 71, PVLDEFREKLNELXEALKQKLK] (H-PVLDEFREKLNEL[Aib]EALKQKLK-OH), the “ACTIVITY (%) LCAT” value is 11%. Consider PVLDEFREKLNEELEWLKQKLK [compound 122], for which the “ACTIVITY (%) LCAT” value stood at 0%. Next, `CC(C)C[C@H](NC(=O)[C@H](C)NC(=O)[C@H](CCC(=O)O)NC(=O)[C@H](CC(C)C)NC(=O)C(C)(C)NC(=O)[C@H](CCC(=O)O)NC(=O)[C@H](CC(N)=O)NC(=O)[C@H](Cc1ccc(O)cc1)NC(=O)[C@H](CC(C)C)NC(=O)[C@H](CCC(=O)O)NC(=O)[C@H](CCCNC(=N)N)NC(=O)[C@H](Cc1ccccc1)NC(=O)[C@H](CCC(=O)O)NC(=O)[C@H](CC(=O)O)NC(=O)[C@H](CC(C)C)NC(=O)[C@@H](NC(=O)[C@@H]1CCCN1)C(C)C)C(=O)N[C@@H](CCCCN)C(=O)N[C@@H](CCC(N)=O)C(=O)N[C@@H](CCCCN)C(=O)N[C@@H](CC(C)C)C(=O)N[C@@H](CCCCN)C(=O)O` [compound 92, PVLDEFRELYNEXLEALKQKLK] (H-PVLDEFRELYNE[Aib]LEALKQKLK-OH): 5%; LVLDLFRELLNELLEALKQKLK [compound 59]: 17%; `CC(C)C[C@@H](NC(=O)[C@@H](C)NC(=O)[C@@H](CC(=O)O)NC(=O)[C@@H](CC(C)C)NC(=O)[C@@H](CC(C)C)NC(=O)[C@@H](CCCNC(=N)N)NC(=O)[C@@H](CCC(=O)O)NC(=O)[C@@H](CC(C)C)NC(=O)[C@@H](CC(C)C)NC(=O)[C@@H](CC(N)=O)NC(=O)[C@@H](CCC(=O)O)NC(=O)[C@@H](Cc1ccccc1)NC(=O)[C@@H](CC(C)C)NC(=O)[C@@H](CCC(=O)O)NC(=O)[C@@H](CC(C)C)NC(=O)[C@H](NC(=O)[C@H]1CCCN1)C(C)C)C(=O)N[C@H](CCC(N)=O)C(=O)N[C@H](CCCCN)C(=O)N[C@H](CCCCN)C(=O)N[C@H](CC(C)C)C(=O)N[C@H](CCCCN)C(=O)O` [compound 174, pvlelfenllerlldalqkklk] (H-[dP][dV][dL][dE][dL][dF][dE][dN][dL][dL][dE][dR][dL][dL][dD][dA][dL][dQ][dK][dK][dL][dK]-OH): 13%. To VLDLFRELLNEGLEALKQKLK [compound 47] belongs 23%; to `CC(C)C[C@H](NC(=O)[C@H](C)NC(=O)[C@H](CCC(=O)O)NC(=O)[C@H](CC(C)C)NC(=O)[C@H](CC(C)C)NC(=O)[C@H](CCC(=O)O)NC(=O)[C@H](CC(N)=O)NC(=O)[C@H](CC(C)C)NC(=O)[C@H](CC(C)C)NC(=O)[C@H](CCC(=O)O)NC(=O)[C@H](CCCNC(=N)N)NC(=O)[C@H](Cc1ccccc1)NC(=O)[C@H](CC(C)C)NC(=O)[C@H](CC(=O)O)NC(=O)[C@H](CC(C)C)NC(=O)[C@H](NC(=O)[C@H]1CCCN1)C(C)C)C(=O)N[C@@H](CCCCN)C(=O)N[C@@H](CCC(N)=O)C(=O)N[C@@H](CCCCN)C(=O)N[C@@H](CC(C)C)C(=O)N[C@@H](CCCCN)C(=O)O` [compound 48], 22%; to `CC(C)C[C@H](NC(=O)[C@H](C)NC(=O)[C@H](CCC(=O)O)NC(=O)[C@H](CC(C)C)NC(=O)C(C)(C)NC(=O)[C@H](CCC(=O)O)NC(=O)[C@H](CC(N)=O)NC(=O)[C@H](CC(C)C)NC(=O)[C@H](CCCCN)NC(=O)[C@H](CCC(=O)O)NC(=O)[C@H](CCCNC(=N)N)NC(=O)[C@H](Cc1ccccc1)NC(=O)[C@H](CCC(=O)O)NC(=O)[C@H](CC(=O)O)NC(=O)[C@@H](N)CC(C)C)C(=O)N[C@@H](CCCCN)C(=O)N[C@@H](CCC(N)=O)C(=O)N[C@@H](CCCCN)C(=O)N[C@@H](CC(C)C)C(=O)N[C@@H](CCCCN)C(=O)O` [compound 82, ~~LDEFREKLNEXLEALKQKLK] (H-LDEFREKLNE[Aib]LEALKQKLK-OH), 8%. Regarding “Ac-PLLDLFKELLEELKQKLK-NH2 [compound 201]”, the “ACTIVITY (%) LCAT” value was 74%. Next, PVLDLFRELLNELLEALQKKLK [peptide 24]: 53%; PVLDLFREKLNEELEALKQKLK [compound 106]: 0%.

Turning to PVLDLFRELLNELLELLKQKLK [compound 127], the “ACTIVITY (%) LCAT” value came to 47%. To PVLEFFENLLERLLDALQKKLK [compound 157] belongs 30%; to `CC(C)C[C@H](NC(=O)[C@H](C)NC(=O)[C@H](CCC(=O)O)NC(=O)[C@H](Cc1c[nH]c2ccccc12)NC(=O)C(C)(C)NC(=O)[C@H](CCC(=O)O)NC(=O)[C@H](Cc1c[nH]c2ccccc12)NC(=O)[C@H](CC(C)C)NC(=O)[C@H](CCCCN)NC(=O)[C@H](CCC(=O)O)NC(=O)[C@H](CCCNC(=N)N)NC(=O)[C@H](Cc1ccccc1)NC(=O)[C@H](CCC(=O)O)NC(=O)[C@H](CC(=O)O)NC(=O)[C@H](CC(C)C)NC(=O)[C@@H](NC(=O)[C@@H]1CCCN1)C(C)C)C(=O)N[C@@H](CCCCN)C(=O)N[C@@H](CCC(N)=O)C(=O)N[C@@H](CCCCN)C(=O)N[C@@H](CC(C)C)C(=O)N[C@@H](CCCCN)C(=O)O` [compound 111, PVLDEFREKLWEXWEALKQKLK] (H-PVLDEFREKLWE[Aib]WEALKQKLK-OH), 0%; to `CC(C)C[C@H](NC(=O)[C@H](C)NC(=O)[C@H](Cc1c[nH]c2ccccc12)NC(=O)[C@H](CC(C)C)NC(=O)C(C)(C)NC(=O)[C@H](CCC(=O)O)NC(=O)[C@H](CC(N)=O)NC(=O)[C@H](CC(C)C)NC(=O)[C@H](CCCCN)NC(=O)[C@H](CCC(=O)O)NC(=O)[C@H](CCCNC(=N)N)NC(=O)[C@H](Cc1ccccc1)NC(=O)[C@H](CCC(=O)O)NC(=O)[C@H](CC(=O)O)NC(=O)[C@H](CC(C)C)NC(=O)[C@@H](NC(=O)[C@@H]1CCCN1)C(C)C)C(=O)N[C@@H](CCCCN)C(=O)N[C@@H](CCC(N)=O)C(=O)N[C@@H](CCCCN)C(=O)N[C@@H](CC(C)C)C(=O)N[C@@H](CCCCN)C(=O)O` [compound 89, PVLDEFREKLNEXLWALKQKLK] (H-PVLDEFREKLNE[Aib]LWALKQKLK-OH), 6%.
